Laboratory results from PubChem BioAssay AID2060891 (Molecular Pharmacology Branch, DTP, NCI, 2025).

System: K98450-129-R-PDC complex spheroid growth, percent test/control
Experiment: Anticancer human tumor K98450-129-R-PDC patient-derived colon adenocarcinoma cell line growth inhibition [RAS]
Details: for IC50: curve of first compound; for viability, T/C: stronger effect = lower value
From the text: RAS pathway inhibitors in Combinations in Complex Spheroids
A high-throughput screen of multi-cell type tumor spheroids was designed to identify active combinations of RAS pathway inhibitors and targeted small molecules. Complex spheroids include a stromal component modeled by human endothelial cells (HUVEC) and fibroblasts modeled by human mesenchymal stem cells (MSCs). The concentration ranges selected for each drug and investigational agent were based upon clinically achievable concentrations if the clinical Cmax of the agent was known.
Compounds. The drugs and investigational agents: abemaciclib (NSC768073), cobimetinib (NSC768068), divarasib (GDC6063, NSC841802), docetaxel (NSC628503), GDC-1971 (RLY-1971, NSC841576), gemcitabine (NSC613327), inavolisib (NSC800729), ipatasertib (NSC767898), KB-0742 (NSC834161), MRTX-1133 (NSC836407), osimertinib (NSC779217), RMC-4630 (NSC839698), RMC-6236 (NSC851965), RMC-6291 (NSC852671), Ro-3306 (NSC812927), sapanisertib (NSC764658), SN-38 (NSC673596), staurosporine (NSC755774), SY5609 (NSC837396), and tovorafenib (DAY101, NSC766906), were obtained from the National Cancer Institute (NCI) Developmental Therapeutics Program Chemical Repository. The FDA-approved anticancer drug set is available from the NCI Developmental Therapeutics Program. […] The stock solutions were prepared in dimethyl sulfoxide (DMSO, Sigma-Aldrich, St. Louis, MO, cat. D2650) at 800-fold the tested concentration and stored at -70 degrees C prior to their use. All drugs and investigational agents were tested over a range starting from a high concentration at or near the clinical Cmax and decreasing in half-log increments. If the clinical Cmax for an agent had not been determined, the highest concentration tested was 10 microM.
Cell Culture. All cells were maintained in an incubator at 37 degrees C and 5% CO2 with 95% humidity. The PDC lines were cultured according to standard operating procedures established by the NCI PDMR. All PDCs were thawed and cultured in Matrigel-coated flasks prepared with a working solution of 1X Ham's F-12 nutrient mix, without supplementation (Invitrogen, Waltham, MA, cat. 11765054), 100 U/mL penicillin-streptomycin (Invitrogen, cat. 15140122), and 2.5% Matrigel (Corning Inc., Corning, NY, cat. 354248) for the first three passages. The 362531-283-R-J2-PDC and 782815-120-R-J1-PDC lines were cultured in 6C/Colon 1B media, which includes advanced DMEM/F-12 (Thermo Fisher Scientific, cat. 12634028), 10 mM HEPES (Thermo Fisher Scientific, cat. 15630080), 1X GlutaMAX supplement (Thermo Fisher Scientific, cat. 35050061), 0.1 mg/mL primocin (InvivoGen, San Diego, CA, cat. ant-pm-2), 10% defined fetal bovine serum, heat inactivated (HyClone Laboratories Inc., Logan, UT, cat. SH30070.03HI), 50% L-WRN conditioned media (ATCC, cat. CRL-3276), 1.25 mM N-Acetyl-L-cysteine (Sigma-Aldrich, cat. A9165), 10 mM nicotinamide (Sigma-Aldrich, cat. N0636), 1X B-27 supplement (Thermo Fisher Scientific, cat. 17504044), 1X N-2 supplement (Thermo Fisher Scientific, cat. 17502048), 50 ng/mL human EGF (Thermo Fisher Scientific, cat. PHG0311), and 10 microM Y-27632 dihydrochloride (Tocris Bioscience, cat. 1254). The K12877-001-R-J1-PDC line was cultured in 6I media, which includes all 6C/Colon 1B media plus 10 ng/mL human FGF-10 (PeproTech, cat. 100-26), 1 ng/mL human FGF-2 (PeproTech, cat. 100-18B), 1 µM prostaglandin E2 (Tocris Bioscience, cat. 2296), […] hydrocortisone (Sigma-Aldrich, cat. H4001), and […] bovine insulin (Sigma-Aldrich, cat. I6634). The K86415-001-R-J1-PDC line was cultured in 6D media, which includes all 6C/Colon 1B media components minus the L-WRN conditioned media. The 485176-168-R4-J1-PDC was cultured in PANC media, which includes all 6C/Colon 1B media plus 100 ng/mL human FGF-10 (PeproTech, cat. 100-26), 500 nM SB-431542 (Selleckchem, cat. S1067), and 10 nM gastrin (Tocris Bioscience, cat. 3006). […]
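Further: spheroids exposed to agents for seven days before the viability readout.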
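Wherever viability, T/C is given: luminescence used as a proxy for viable cell amount.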

Structure (SMILES): CC(C)NCC(C(=O)N1CCN(c2ncnc3c2C(C)CC3O)CC1)c1ccc(Cl)cc1 (configuration not stated) + C#Cc1c(F)ccc2cc(O)cc(-c3ncc4c(N5CC6CCC(C5)N6)nc(OCC56CCCN5CC(F)C6)nc4c3F)c12
- IC50 (second compound 0.0316 µM): > 10 µM
- IC50 (second compound 0.1 µM): > 10 µM
- IC50 (second compound 0.316 µM): > 10 µM
- IC50 (second compound 1 µM): > 10 µM
- IC50 (second compound 3.16 µM): > 10 µM
- IC50 (second compound 10 µM): > 10 µM
- viability, T/C (second compound 0.0316 µM, first compound 0.0316 µM): 110%
- viability, T/C (second compound 0.0316 µM, first compound 0.1 µM): 106%
- viability, T/C (second compound 0.0316 µM, first compound 0.316 µM): 92.9%
- viability, T/C (second compound 0.0316 µM, first compound 1 µM): 99.2%
- viability, T/C (second compound 0.0316 µM, first compound 3.16 µM): 104%
- viability, T/C (second compound 0.0316 µM, first compound 10 µM): 96.7%
- viability, T/C (second compound 0.1 µM, first compound 0.0316 µM): 110%
- viability, T/C (second compound 0.1 µM, first compound 0.1 µM): 96.9%
- viability, T/C (second compound 0.1 µM, first compound 0.316 µM): 106%
- viability, T/C (second compound 0.1 µM, first compound 1 µM): 98%
- viability, T/C (second compound 0.1 µM, first compound 3.16 µM): 113%
- viability, T/C (second compound 0.1 µM, first compound 10 µM): 103%
- viability, T/C (second compound 0.316 µM, first compound 0.0316 µM): 105%
- viability, T/C (second compound 0.316 µM, first compound 0.1 µM): 96.1%
- viability, T/C (second compound 0.316 µM, first compound 0.316 µM): 110%
- viability, T/C (second compound 0.316 µM, first compound 1 µM): 97.3%
- viability, T/C (second compound 0.316 µM, first compound 3.16 µM): 104%
- viability, T/C (second compound 0.316 µM, first compound 10 µM): 98.6%
- viability, T/C (second compound 1 µM, first compound 0.0316 µM): 99.5%
- viability, T/C (second compound 1 µM, first compound 0.1 µM): 96.8%
- viability, T/C (second compound 1 µM, first compound 0.316 µM): 96.1%
- viability, T/C (second compound 1 µM, first compound 1 µM): 95.7%
- viability, T/C (second compound 1 µM, first compound 3.16 µM): 104%
- viability, T/C (second compound 1 µM, first compound 10 µM): 99.2%
- viability, T/C (second compound 3.16 µM, first compound 0.0316 µM): 95.7%
- viability, T/C (second compound 3.16 µM, first compound 0.1 µM): 86.5%
- viability, T/C (second compound 3.16 µM, first compound 0.316 µM): 97.3%
- viability, T/C (second compound 3.16 µM, first compound 1 µM): 93.8%
- viability, T/C (second compound 3.16 µM, first compound 3.16 µM): 98.7%
- viability, T/C (second compound 3.16 µM, first compound 10 µM): 88.2%
- viability, T/C (second compound 10 µM, first compound 0.0316 µM): 83.9%
- viability, T/C (second compound 10 µM, first compound 0.1 µM): 82.6%
- viability, T/C (second compound 10 µM, first compound 0.316 µM): 81.9%
- viability, T/C (second compound 10 µM, first compound 1 µM): 85.9%
- viability, T/C (second compound 10 µM, first compound 3.16 µM): 91.5%
- viability, T/C (second compound 10 µM, first compound 10 µM): 81.9%
